Assay results taken from ChEMBL document CHEMBL1139194, “Antitumor agents. 256. Conjugation of paclitaxel with other antitumor agents: evaluation of novel conjugates as cytotoxic agents” (Bioorg Med Chem Lett, 2007).
pEC50: −log10 of the molar value. The source made the active and inactive calls. No cut-off for these calls is given here.

Experiments:
1A9 [1] = assay: Cytotoxicity against human 1A9 cells by sulforhodamine B assay; type: functional; details: read-out: ED50 (the source's name)
A549 [2] = assay: Cytotoxicity against human A549 cells by sulforhodamine B assay; type: functional; details: read-out: ED50 (the source's name)
MCF7 [3] = assay: Cytotoxicity against human MCF7 cells by sulforhodamine B assay; type: functional; details: read-out: ED50 (the source's name)
LNCaP [4] = assay: Cytotoxicity against human LNCAP cells by sulforhodamine B assay; type: functional; details: read-out: ED50 (the source's name)
PC-3 [5] = assay: Cytotoxicity against human PC3 cells by sulforhodamine B assay; type: functional; details: read-out: ED50 (the source's name)
DU-145 [6] = assay: Cytotoxicity against human DU145 cells by sulforhodamine B assay; type: functional; details: read-out: ED50 (the source's name)
KB [7] = assay: Cytotoxicity against human KB cells by sulforhodamine B assay; type: functional; details: read-out: ED50 (the source's name)
[8] = Cytotoxicity against human MRC5 cells by sulforhodamine B assay; type: cell-based; details: read-out: ED50 (the source's name)
[9] = Cytotoxicity against multi drug-resistant human KBVIN cells at 20 ug/mL by sulforhodamine B assay; type: functional
HUVEC = assay: Antiangiogenesis activity against HUVEC cells; type: functional; details: Homo sapiens, read-out: ED50 (the source's name)
1A9 [10] = assay: Cytotoxicity against human 1A9 cells at 20 ug/mL by sulforhodamine B assay; type: functional
A549 [11] = assay: Cytotoxicity against human A549 cells at 20 ug/mL by sulforhodamine B assay; type: functional
MCF7 [12] = assay: Cytotoxicity against human MCF7 cells at 20 ug/mL by sulforhodamine B assay; type: functional
LNCaP [13] = assay: Cytotoxicity against human LNCAP cells at 20 ug/mL by sulforhodamine B assay; type: functional
PC-3 [14] = assay: Cytotoxicity against human PC3 cells at 20 ug/mL by sulforhodamine B assay; type: functional
DU-145 [15] = assay: Cytotoxicity against human DU145 cells at 20 ug/mL by sulforhodamine B assay; type: functional
KB [16] = assay: Cytotoxicity against human KB cells at 20 ug/mL by sulforhodamine B assay; type: functional
[17] = (§1) Cytotoxicity against multi drug-resistant human KBVIN cells by sulforhodamine B assay; type: functional; details: read-out: ED50 (the source's name)
[18] = Cytotoxicity against human MRC5 cells at 10 ug/mL by sulforhodamine B assay; type: cell-based; details: read-out: Inhibition
KBVIN = assay: as §1; type: functional

COc1cc([C@@H]2c3cc4c(cc3[C@@H](Nc3ccc(C(=O)NCCC(=O)O[C@H]5C[C@H]6OC[C@@]6(OC(C)=O)[C@H]6[C@H](OC(=O)c7ccccc7)[C@]7(O)C[C@H](OC(=O)[C@H](O)[C@@H](NC(=O)c8ccccc8)c8ccccc8)C(C)=C([C@@H](OC(C)=O)C(=O)[C@]56C)C7(C)C)cc3)[C@H]3COC(=O)[C@H]23)OCO4)cc(OC)c1O
pEC50 (1A9 [1]): 7.68
pEC50 (A549 [2]): 7.34
pEC50 (MCF7 [3]): 7.36
pEC50 (LNCaP [4]): 7.66
pEC50 (PC-3 [5]): 7.06
pEC50 (DU-145 [6]): 7.08
pEC50 (KB [7]): 7.50
CC50 [8]: 3.28 µM
inhibition at 20 µg/mL [9]: < 50%

COc1cc2c(c(OC)c1OC(=O)CCC(=O)O[C@@H](C(=O)O[C@H]1C[C@@]3(O)[C@@H](OC(=O)c4ccccc4)[C@@H]4[C@]5(OC(C)=O)CO[C@@H]5C[C@H](O)[C@@]4(C)C(=O)[C@H](OC(C)=O)C(=C1C)C3(C)C)[C@@H](NC(=O)c1ccccc1)c1ccccc1)-c1ccc(OC)c(=O)cc1[C@@H](NC(C)=O)CC2
pEC50 (1A9 [1]): 7.97
pEC50 (A549 [2]): 7.56
pEC50 (MCF7 [3]): 7.58
pEC50 (LNCaP [4]): 7.89
pEC50 (PC-3 [5]): 7.29
pEC50 (DU-145 [6]): 7.50
pEC50 (KB [7]): 7.72
pEC50 (HUVEC): 7.86
inhibition at 20 µg/mL [9]: < 50%

COc1ccc2c(c1)[C@@H](NC(=O)CCC(=O)O[C@@H](C(=O)O[C@H]1C[C@@]3(O)[C@@H](OC(=O)c4ccccc4)[C@@H]4[C@]5(OC(C)=O)CO[C@@H]5C[C@H](O)[C@@]4(C)C(=O)[C@H](OC(C)=O)C(=C1C)C3(C)C)[C@@H](NC(=O)c1ccccc1)c1ccccc1)CCc1cc(OC)c(OC)c(OC)c1-2
pEC50 (1A9 [1]): 7.85
pEC50 (A549 [2]): 7.55
pEC50 (MCF7 [3]): 7.53
pEC50 (LNCaP [4]): 7.63
pEC50 (PC-3 [5]): 7.15
pEC50 (DU-145 [6]): 7.46
pEC50 (KB [7]): 7.67
pEC50 (HUVEC): 7.80
inhibition at 20 µg/mL [9]: < 50%

CC1(C)[C@@H](O)CC[C@]2(C)[C@H]3C(=O)C=C4[C@@H]5C[C@@](C)(C(=O)O)CC[C@]5(C)CC[C@@]4(C)[C@]3(C)CC[C@@H]12 [ENOXOLONE]
inhibition at 20 µg/mL (1A9 [10]): < 50%
inhibition at 20 µg/mL (A549 [11]): < 50%
inhibition at 20 µg/mL (MCF7 [12]): < 50%
inhibition at 20 µg/mL (LNCaP [13]): < 50%
inhibition at 20 µg/mL (PC-3 [14]): < 50%
inhibition at 20 µg/mL (DU-145 [15]): < 50%
inhibition at 20 µg/mL (KB [16]): < 50%
inhibition at 20 µg/mL [9]: < 50%

COc1cc([C@@H]2c3cc4c(cc3[C@@H](Nc3ccc(C(=O)NCCC(=O)O[C@@H](C(=O)O[C@H]5C[C@@]6(O)[C@@H](OC(=O)c7ccccc7)[C@@H]7[C@]8(OC(C)=O)CO[C@@H]8C[C@H](O)[C@@]7(C)C(=O)[C@H](OC(C)=O)C(=C5C)C6(C)C)[C@@H](NC(=O)c5ccccc5)c5ccccc5)cc3)[C@H]3COC(=O)[C@H]23)OCO4)cc(OC)c1O
pEC50 (1A9 [1]): 8.54
pEC50 (A549 [2]): 8.00
pEC50 (MCF7 [3]): 8.19
pEC50 (LNCaP [4]): 8.38
pEC50 (PC-3 [5]): 7.92
pEC50 (DU-145 [6]): 8.07
pEC50 (KB [7]): 8.08
pEC50 [17]: 5.00
pEC50 (HUVEC): 8.31
cytotoxicity at 10 ug/mL [18]: < 50%

COc1cc2c(c(OC)c1OC(=O)CCC(=O)O[C@@H](C(=O)O[C@H]1C[C@@]3(O)[C@@H](OC(=O)c4ccccc4)[C@@H]4[C@]5(OC(C)=O)CO[C@@H]5C[C@H](O)[C@@]4(C)C(=O)[C@H](OC(C)=O)C(=C1C)C3(C)C)[C@@H](NC(=O)c1ccccc1)c1ccccc1)-c1ccc(SC)c(=O)cc1[C@@H](NC(C)=O)CC2
pEC50 (1A9 [1]): 7.99
pEC50 (A549 [2]): 7.63
pEC50 (MCF7 [3]): 7.61
pEC50 (LNCaP [4]): 7.71
pEC50 (PC-3 [5]): 7.14
pEC50 (DU-145 [6]): 7.53
pEC50 (KB [7]): 7.77
pEC50 (HUVEC): 8.03
inhibition at 20 µg/mL [9]: < 50%

COc1cc([C@@H]2c3cc4c(cc3[C@@H](Nc3ccc(C(=O)NCCCC(=O)O[C@H]5C[C@H]6OC[C@@]6(OC(C)=O)[C@H]6[C@H](OC(=O)c7ccccc7)[C@]7(O)C[C@H](OC(=O)[C@H](O)[C@@H](NC(=O)c8ccccc8)c8ccccc8)C(C)=C([C@@H](OC(C)=O)C(=O)[C@]56C)C7(C)C)cc3)[C@H]3COC(=O)[C@H]23)OCO4)cc(OC)c1O
pEC50 (1A9 [1]): 6.98
pEC50 (A549 [2]): 5.88
pEC50 (MCF7 [3]): 6.90
pEC50 (KB [7]): 6.46
Activity (KBVIN): inactive
